A short description of experiment [1]: Concentration for doublingAPTT clotting times of human plasma. In kind it is functional, cell-free.
Experiment [2] is described as follows: Anticoagulant activity of compound in respect to APTT in human poor platelet plasma (PPP) at 1785.28 nM concentration was measured by the Amelung coagulometer KC4A apparatus. The experiment is classed as functional.
Experiment [3] can be described thus: Anticoagulant activity of compound in respect to APTT in human poor platelet plasma (PPP) at 1338.96 nM concentration was measured by the Amelung coagulometer KC4A apparatus. In kind it is functional.
The nature of experiment [4]: Anticoagulant activity of compound in respect to APTT in human poor platelet plasma (PPP) at 1562.12 nM concentration was measured by the Amelung coagulometer KC4A apparatus. The experiment is classed as functional.
A short description of experiment [5]: Anticoagulant activity of compound in respect to APTT in human poor platelet plasma (PPP) at a concentration 272.29(nM) of was measured by the Amelung coagulometer KC4A apparatus. In kind it is functional.
Experiment [6] in a line: Anticoagulant activity of compound in respect to APTT in human poor platelet plasma (PPP) at 418.91 nM concentration was measured by the Amelung coagulometer KC4A apparatus. In kind it is functional.
The nature of experiment [7]: Anticoagulant activity of compound in respect to APTT in human poor platelet plasma (PPP) at a concentration 523.64(nM) of was measured by the Amelung coagulometer KC4A apparatus. The experiment is classed as functional.
The nature of experiment [8]: Anticoagulant activity of compound in respect to APTT in human poor platelet plasma (PPP) at a concentration 802.24(nM) of was measured by the Amelung coagulometer KC4A apparatus. In kind it is functional.
The next experiment is filed under the species Homo sapiens. The experiment in a line: Anticoagulant activity of compound in respect to APTT in human poor platelet plasma (PPP) at a concentration 41.89(nM) of was measured by the Amelung coagulometer KC4A apparatus. In kind it is functional, cell-free.
Experiment [9] in a line: Anticoagulant activity of compound in respect to APTT in human poor platelet plasma (PPP) at 528.94 nM concentration was measured by the Amelung coagulometer KC4A apparatus. In kind it is functional.
Experiment [10] can be described thus: Anticoagulant activity of compound in respect to APTT in human poor platelet plasma (PPP) at 881.56 nM concentration was measured by the Amelung coagulometer KC4A apparatus. In kind it is functional.
The nature of experiment [11]: Anticoagulant activity of compound in respect to APTT in human poor platelet plasma (PPP) at 705.25 nM concentration was measured by the Amelung coagulometer KC4A apparatus. In kind it is functional.
A short description of experiment [12]: Anticoagulant activity of compound in respect to APTT in human poor platelet plasma (PPP) at 2235.9 nM concentration was measured by the Amelung coagulometer KC4A apparatus. The experiment is classed as functional.
Experiment [13] in a line: Anticoagulant activity of compound in respect to APTT in human poor platelet plasma (PPP) at 894 nM concentration was measured by the Amelung coagulometer KC4A apparatus. The experiment is classed as functional.
The nature of experiment [14]: Anticoagulant activity of compound in respect to APTT in human poor platelet plasma (PPP) at 290 nM concentration was measured by the Amelung coagulometer KC4A apparatus. The experiment is classed as functional.
Experiment [15] in a line: Anticoagulant activity of compound in respect to APTT in human poor platelet plasma (PPP) at 1117.95 nM concentration was measured by the Amelung coagulometer KC4A apparatus. In kind it is functional.
The nature of experiment [16]: Anticoagulant activity of compound in respect to APTT in human poor platelet plasma (PPP) at 1043.42 nM concentration was measured by the Amelung coagulometer KC4A apparatus. The experiment is classed as functional.
Experiment [17] can be described thus: Anticoagulant activity of compound in respect to APTT in human poor platelet plasma (PPP) at 1192 nM concentration was measured by the Amelung coagulometer KC4A apparatus. In kind it is functional.
Experiment [18] is described as follows: Anticoagulant activity of compound in respect to APTT in human poor platelet plasma (PPP) at 771 nM concentration was measured by the Amelung coagulometer KC4A apparatus. The experiment is classed as functional.
The nature of experiment [19]: Anticoagulant activity of compound in respect to APTT in human poor platelet plasma (PPP) at 1156.6 nM concentration was measured by the Amelung coagulometer KC4A apparatus. In kind it is functional.
Experiment [20] is described as follows: Anticoagulant activity of compound in respect to APTT in human poor platelet plasma (PPP) at 1077.7 nM concentration was measured by the Amelung coagulometer KC4A apparatus. The experiment is classed as functional.
Experiment [21] can be described thus: Anticoagulant activity of compound in respect to APTT in human poor platelet plasma (PPP) at 211 nM concentration was measured by the Amelung coagulometer KC4A apparatus. The experiment is classed as functional.
Experiment [22] in a line: Anticoagulant activity of compound in respect to APTT in human poor platelet plasma (PPP) at 646.61 nM concentration was measured by the Amelung coagulometer KC4A apparatus. In kind it is functional.
A short description of experiment [23]: Anticoagulant activity of compound in respect to APTT in human poor platelet plasma (PPP) at 2992.43 nM concentration was measured by the Amelung coagulometer KC4A apparatus. In kind it is functional.
A short description of experiment [24]: Anticoagulant activity of compound in respect to APTT in human poor platelet plasma (PPP) at 2901.75 nM concentration was measured by the Amelung coagulometer KC4A apparatus. In kind it is functional.
A short description of experiment [25]: Anticoagulant activity of compound in respect to APTT in human poor platelet plasma (PPP) at 1813.59 nM concentration was measured by the Amelung coagulometer KC4A apparatus. The experiment is classed as functional.
Experiment [26] can be described thus: Anticoagulant activity of compound in respect to APTT in human poor platelet plasma (PPP) at 2720.39 nM concentration was measured by the Amelung coagulometer KC4A apparatus. In kind it is functional.
A short description of experiment [27]: Anticoagulant activity of compound in respect to APTT in human poor platelet plasma (PPP) at 2266.99 nM concentration was measured by the Amelung coagulometer KC4A apparatus. In kind it is functional.
A short description of experiment [28]: Anticoagulant activity of compound in respect to APTT in human poor platelet plasma (PPP) at 906.8 nM concentration was measured by the Amelung coagulometer KC4A apparatus. The experiment is classed as functional.

Square brackets hold non-standard residues; d marks the D form. Peptide text beside a SMILES is read from it. Orn = NCCC[C@H](N)C(=O)O

In [1], `CC(C)C[C@H](NC(=O)[C@H](CCCCN)NC(=O)[C@H](CCCN=C(N)N)NC(=O)[C@H](CCCCN)NC(=O)[C@@H]1CCCN1C(=O)[C@@H](N)CCCN)C(=O)N[C@H](C(=O)N1CCC[C@H]1C(N)=O)C(C)C` (H-[Orn]PKRKLVP-NH2) [listing 1 of 2 here] yielded an IC50 of 705 nM.

On to H-PKRKLVP-NH2 [listing 1 of 2 here], for which the IC50 in experiment [1] is 2900 nM. This IC50 lies about 4.1-fold higher than the previous one.

In the case of H-PKRKLVP-OH [listing 1 of 2 here], the APTT in experiment [2] stood at 47.1 s; in experiment [3], 22.1 s; in experiment [4], 31 s.

H-RPKLVP-OH returned an IC50 in experiment [1] of 802 nM. The APTT is 3.8 s in experiment [5]; 5.5 s in experiment [6]; 15.6 s in experiment [7]; 62.4 s in experiment [8]; “No activity” in the experiment listed under Homo sapiens.

H-PKRKLVP-OH [listing 2 of 2 here]: the IC50 in [1] stood at 1560 nM.

Take `CC(C)C[C@H](NC(=O)[C@H](CCCCN)NC(=O)[C@H](CCCN=C(N)N)NC(=O)[C@H](CCCCN)NC(=O)[C@@H]1CCCN1C(=O)[C@@H](N)CCCN)C(=O)N[C@H](C(=O)N1CCC[C@H]1C(N)=O)C(C)C` (H-[Orn]PKRKLVP-NH2) [listing 2 of 2 here]: the values for the APTT in [9], in experiment [10] and in experiment [11] were 0.5 s, 53.3 s and 29.3 s, respectively.

As for H-KPKRKLVP-OH, the APTT is on record as 122.8 s in experiment [12]; 21.6 s in [13]; 6.7 s in [14]; 30 s in experiment [15]; 24.1 s in [16]; 50.9 s in experiment [17]. Also, the IC50 in experiment [1] was found to be 1120 nM.

Consider `CC(C)C[C@H](NC(=O)[C@H](CCCCN)NC(=O)[C@H](CCCN=C(N)N)NC(=O)[C@H](CCCCN)NC(=O)[C@@H]1CCCN1C(=O)[C@@H](N)CCCN)C(=O)N[C@H](C(=O)N1CCC[C@H]1C(=O)O)C(C)C` (H-[Orn]PKRKLVP-OH) [listing 1 of 2 here], for which it took 1160 nM to reach half-maximal inhibition in experiment [1] (IC50).

As for `CC(C)C[C@H](NC(=O)[C@H](CCCCN)NC(=O)[C@H](CCCN=C(N)N)NC(=O)[C@H](CCCCN)NC(=O)[C@@H]1CCCN1C(=O)[C@@H](N)CCCN)C(=O)N[C@H](C(=O)N1CCC[C@H]1C(=O)O)C(C)C` (H-[Orn]PKRKLVP-OH) [listing 2 of 2 here], the values for the APTT in [18] and in [19] were 22.2 s and 28.5 s, respectively.

In the case of H-KPKRKLVP-NH2, the APTT in experiment [20] is listed as 57.9 s; in experiment [21], 8.9 s; in [22] it was 28.9 s. Also, half-maximal inhibition in experiment [1] (IC50) required 647 nM.

Regarding H-PKRKLVP-NH2 [listing 2 of 2 here], the APTT is recorded as 32.4 s in experiment [23]; 29.8 s in [24]; 18.6 s in experiment [25]; 25.5 s in experiment [26]; 18.8 s in experiment [27]; 8.8 s in experiment [28].

The record behind these values is ChEMBL document CHEMBL1141046, “Design, synthesis and structure-activity relationship of a series of fragment analogues of antistasin (ATS) and ghilantens (GLS)” (Bioorg Med Chem Lett, 2005).
